Test results as given in US20230414582A1, “METHODS OF TREATING DISEASES AND DISORDERS” (Curis, Inc., priority 2020, published 2023).
“Also recorded” adds a separate entry of the source.

Key:
[1] = tested on: Waldenstrom's macroglobulinemia (WM); assay: Prior therapies of the WM patient (case history); format: in vivo, human
[2] = Phase 1 study of Compound 1 in AML or high risk MDS (NCT04278768): safety; format: in vivo; settings: Cohort 1, 200 mg BID
Procedure: (§1) This study will be conducted in 2 parts: an initial dose escalation and dose expansion phase. […] Three patients with AML or MDS will be enrolled at the designated dose. If none of the first 3 patients experience a DLT during the first cycle, patients may be enrolled into the next higher dose level of 300 mg bid until a safe and effective RP2D is established.
(§2) This study is expected to enroll approximately 18 patients to establish the initial RP2D.
(§3) The major study inclusion and exclusion criteria are as follows: Relapsed or refractory AML (primary or secondary, including treatment-related) after at least one standard treatment (including chemotherapy, re-induction therapy or stem cell transplantation) based on the assessment of the investigator or high/very high risk relapsed/refractory MDS (IPSS-R criteria), following at least 6 cycles of hypomethylating agents [HMA] or evidence of early progression.

[3] = Phase I dose escalation trial of Compound 1 in NHL (NCT03328078): safety and tolerance; format: in vivo, human
Procedure: (§5) Seven dosing cohorts included 50 and 100 mg QD, and 50, 100, 200, 300, or 400 mg BID of daily continuous oral monotherapy in 21-Day cycles. Objective included safety and tolerance (primary), pk/pd and early efficacy (secondary), and biomarker correlations (exploratory). 31 patients with resistant or refractory, advanced NHL have been enrolled.

[4] = tested on: Waldenstrom's macroglobulinemia (WM); assay: WM patient case on Compound 1 with intra-patient dose escalation: IgM, m-protein, response; format: in vivo, human
Procedure: The patient remained asymptomatic for over 4 years with a slow increase in m-protein and IgM during that time. By mid-2017 they started to experience increased fatigue. […] There was no evidence of CXCR4 genomic alteration. […] Several options were discussed including clinical trials and standard of care Bruton's tyrosine kinase inhibitor (BTKi) therapy.
Baseline testing in December 2018 included a bone marrow biopsy showing 5-10% involvement by WM, m-protein of 1.66 g/dL, IgM 2,801 mg/dL, and a computed tomography scan without pathological lymphadenopathy or hepatosplenomegaly. Quantitative immunoglobulins and serum protein electrophoresis were obtained each cycle to determine response to treatment (FIG. 1).
The patient initiated treatment at the first dose level, 50 mg. […] Using a standard 3+3 design the subsequent dose level, 100 mg po BID, was cleared per protocol. Considering evidence of response without noted toxicity, the patient was a candidate to escalate to 100 mg po BID starting with cycle 7 day 1 in April 2019. […] They reported a significant improvement in their quality of life with resolution of fatigue and returned to a rigorous daily exercise program that they had been unable to perform for the last 2 years due to WM-related symptoms. […]

NF-κB p-p50 = assay: Immunohistochemistry of NF-κB p-p50 in tumor biopsies of NHL patients treated with Compound 1; format: in vivo, human; settings: paired biopsies before and after/during treatment with Compound 1 (3 cases)
Procedure: Formalin-fixed, paraffin-embedded sections of human tonsil and lymphoma were used. Tissue sections (5 μm) were deparaffinized, and antigen retrieval was carried out at 90-100° C. in citrate buffer for 10-40 min. The sections were incubated in 1% […] for 10 minutes to quench endogenous tissue peroxidase. Tissue sections were then incubated with primary NF-κB p-p50-specific antibody for 1 hour at room temperature. The primary NF-κB p-p50-specific antibody used NF-κB p-p50 (S337), sc-271908 from Santa Cruz Biotechnology. The slides were stained using a standard EnVision+System-HRP kit (DAKO, Carpinteria, CA) according to the manufacture's protocol. Immunohistochemical reactions were developed with diaminobenzidine as the chromogenic peroxidase substrate, and slides were counterstained with hematoxylin. Negative control samples included replacement of the primary antibody with nonimmune IgG1 (Dako).
Specifically, nuclear and/or cytoplasmic expression of NF-kappaB p-p50 was found in all 6 SD cases treated with 50 mg QD (2 cases, tumor regression), 50 mg BID (1 case), 200 BID (1 case, tumor regression) and 400 BID (2 cases). Expression of NF-kappaB p-p50 was not detected in 7 of 8 cases with PD including patients treated with 50 mg QD (1 case), 100 mg QD (1 case), 100 mg BID (3 cases), 200 mg BID (1 case) and 400 BID (1 case). […]

[5] = Oral pharmacokinetics of Compound 1 in humans (FIG. 7); format: in vivo, human
Text: In summary, the oral pharmacokinetics of Compound 1 are desirable.

AML or high risk MDS = assay: Phase 1 study of Compound 1 in AML or high risk MDS (NCT04278768): marrow response; format: in vivo, human; settings: initial patients, 200 or 300 mg BID
Procedure: as §1, §2, §3

[6] = tested on: NF-kB p-p50 S337 in OCL-LY10 cells; assay: Western blot of NF-kB p-p50 S337 in OCL-LY10 cells; format: cell-based; settings: 3 μM and 10 μM, 48 h, vs DMSO
Procedure: (§4) At 48 h post-treatment, cell lysates were obtained. Protein sample concentration was quantified and equal amount 20 μg of whole protein extract was loaded in each well of SDS-polyacrylamide gel. Cell extracts were separated by 10% SDS-PAGE, transferred to nitrocellulose membrane, and probed as indicated. The following antibodies were used for immunoblot analysis: NF-kB p-p50 S337 (Santa Cruz Biotechnology) and b-actin (Cell Signaling Technology).

[7] = tested on: NF-kB p-p50 S337 in TF-1 cells; assay: Western blot of NF-kB p-p50 S337 in TF-1 (AML) cells; format: cell-based; settings: TF-1 cells (AML cells, FIG. 13B), 3 μM and 10 μM, 48 h, vs DMSO
Procedure: as §4

[8] = tested on: resistant or refractory, advanced NHL; assay: Phase I dose escalation trial of Compound 1 in NHL (NCT03328078): tumor response; format: in vivo, human; settings: patient with DLBCL-GCB; initial dose 200 mg bid, final dose 300 mg bid
Procedure: as §5

## rituximab
[1]; induction 375 mg/m^2 IV weekly for 8 weeks then maintenance, 2005-2007
  response: very good partial remission
[1]; retreatment 2011, numeric increase from 1476
  IgM: 2042 mg/dL
[1]; retreatment June-September 2011
  response: stable disease

## Cc1cc(-c2nc(C(=O)Nc3cc4oc(N5CCOCC5)nc4nc3N3CC[C@@H](O)C3)co2)ccn1 [Compound 1]
[2]; 3 patients with hr-MDS
  DLT 1st cycle: No DLT
[2]; C2
  dose reductions for Gr. 3 dizziness: 1
[3]; 200 mg BID, N = 5
  Anemia, All Grades, [E]: [1]
  Neutropenia, All Grades, [E]: [3]
  Neutropenia, Grade 3 or Higher, [E]: [2]
[3]; 300 mg BID, N = 6
  Anemia, All Grades, [E]: [3]
  Neutropenia, All Grades, [E]: [5]
  Neutropenia, Grade 3 or Higher, [E]: [1]
[3]; 400 mg BID, N = 8
  Anemia, All Grades, [E]: [1]
  Anemia, Grade 3 or Higher, [E]: [1]
  Neutropenia, All Grades, [E]: [3]
  Thrombocytopenia, All Grades, [E]: [2]
  Thrombocytopenia, Grade 3 or Higher, [E]: [2]
[3]; 31 NHL patients, 50 mg QD to 400 mg BID
  tolerability overall: well tolerated; also recorded: good safety and tolerance
[3]; WM patient, 200 mg po BID, asymptomatic, resolved with exercise moderation
  creatine phosphokinase (CPK/CK) elevation: grade 2
[3]; WM patient, first dose level, 50 mg
  tolerability: tolerated therapy well without adverse events
[4]; 200 mg po BID, by the summer of 2019
  fatigue: completely resolved
[4]; cycles 7 and 8, 100 mg po BID
  response: stable disease
NF-κB p-p50
  NF-κB phospho-p50 expression in tumor biopsies: significant downregulation; also recorded: inhibited
[5]; human, plasma, oral administration
  half-life: ~6 h
[5]; multiple daily twice dose administration
  accumulation at steady state: Moderate accumulation
[5]; oral administration
  time of maximum plasma concentrations post dose: 0.5 to 8 h
AML or high risk MDS
  marrow response: several marrow complete responses
[6]
  expression of NF-kB p-p50 S337 (Western blot): downregulated
[7]
  expression of NF-kB p-p50 S337 (Western blot): downregulated
[8]
  Tumor Reduction: 35%
